This is an account of results in patent publication US5332731A, “Cephalosporin derivatives” (Meiji Seika Kaisha, Ltd., priority 1989, dated 1994).

≈ marks a conversion by molar mass, not a printed value.

Common to all, as to assay: antibacterial activity, MIC by standard serial dilution method
Holding throughout (type): cell-based

Assay [1] has as its system Enterobacter hirae ATCC8043. An excerpt: (§1) Antibacterial activity of Compounds Nos. 1, 3, 5, 7, 9, 11, 13, 15, 17, 19, 21, 23, 25, 27, 29, 31, 33, 35 and 37 indentified hereinbefore which are the particular examples of the new cephalosporin derivative of general formula (I) according to this invention and which are in the form of the free carboxylic acid was estimated by determining the minimum inhibitory concentrations (MIC., μg/ml) of these compounds against a variety of bacteria according to a standard serial dilution method.

Assay [2] has as its system Klebsiella pneumoniae GN69.
From the text: as §1

Another assay concerns Escherichia coli 255.
From the text: as §1

For assay [3], the system named is Serratia marcescens No. 1.
From the text: as §1

Another assay deals with Proteus vulgaris GN76.
From the text: as §1

Assay [4] relates to Staphylococcus aureus 209P JC-1.
From the text: as §1

Assay [5] relates to Staphylococcus epidermidis ATCC14990.
From the text: as §1

The subject of assay [6] is Citrobacter freundii GN346.
From the text: as §1

The subject of assay [7] is Serratia marcescens GN10857.
From the text: as §1

The subject of assay [8] is Klebsiella pneumoniae PCI602.
From the text: as §1

Assay [9] relates to Enterobacter cloacae GN7471.
From the text: as §1

The subject of assay [10] is Marganella morganii 1510/S-1.
From the text: as §1

The subject of assay [11] is Escherichia coli NIHJ JC-2. The conditions noted are these: NIHJJC2.
From the text: as §1

Assay [12] relates to Proteus vulgaris GN76/C-1.
From the text: as §1

A further assay relates to Escherichia coli GN206.
From the text: as §1

The next assay deals with Escherichia coli 255/S-1. The conditions noted are these: 255/S1.
From the text: as §1

Assay [13] has as its system Pseudomonas aeruginosa GN10362.
From the text: as §1

Assay [14] deals with Citrobacter freundii GN346/16.
From the text: as §1

The subject of another assay is Marganella morganii 1510.
From the text: as §1

The test system of assay [15] is Escherichia coli W3630 RGN823. The conditions noted are these: W3630RGN823.
From the text: as §1

Assay [16] deals with Entrobacter faecalis W-73.
From the text: as §1

For assay [17], the system named is Enterobacter cloacae G-0008. The conditions noted are these: G0008.
From the text: as §1

The MIC is the lowest concentration that inhibits growth of the organism. Low readings indicate a more susceptible organism, high ones a less susceptible organism. For the compound `CO/N=C(\C(=O)NC1C(=O)N2C(C(=O)O)=C(SC3CCOC3)CS[C@H]12)c1csc(N)n1` (stereo partly drawn) [Compound No. 3, 7-[(Z)-2-(2-aminothiazol-4-yl)-2-methoxyiminoacetamido]-3-(tetrahydrofuran-3-yl)thio-3-cephem-4-carboxylic acid], the MIC in [1] was 12.5 µg/mL (≈ 25.7 µM); in assay [2], 0.2 µg/mL (≈ 0.412 µM); in the assay with Escherichia coli 255, 50 µg/mL (≈ 103 µM); in [3], 12.5 µg/mL (≈ 25.7 µM); against Proteus vulgaris GN76, 0.1 µg/mL (≈ 0.206 µM); in assay [4], 0.2 µg/mL (≈ 0.412 µM). The MIC in assay [5] was 0.39 µg/mL (≈ 0.803 µM); in assay [6] it was > 100 µg/mL; in assay [7], 100 µg/mL (≈ 206 µM); in assay [8], 0.2 µg/mL (≈ 0.412 µM); in [9], 50 µg/mL (≈ 103 µM); in assay [10] it was 0.2 µg/mL (≈ 0.412 µM). The MIC in assay [11] is 0.39 µg/mL (≈ 0.803 µM); in [12], 1.56 µg/mL (≈ 3.21 µM); in the assay with Escherichia coli GN206, 12.5 µg/mL (≈ 25.7 µM); against Escherichia coli 255/S-1, 0.39 µg/mL (≈ 0.803 µM); in assay [13] it was > 100 µg/mL; in assay [14], 3.13 µg/mL (≈ 6.45 µM). Besides, the MIC in the assay on Marganella morganii 1510 was 25 µg/mL (≈ 51.5 µM); in [15], 0.78 µg/mL (≈ 1.61 µM); in [16], > 100 µg/mL; in assay [17] it was 12.5 µg/mL (≈ 25.7 µM).

On to `CO/N=C(\C(=O)NC1C(=O)N2C(C(=O)O)=C(SCC3COCO3)CS[C@H]12)c1csc(N)n1` (stereo partly drawn) [Compound No. 29, 7 - [(Z)-2-(2-aminothiazol-4-yl)-2-methoxyiminoacetamido]-3-(1,3-dioxolan-4-yl)methylthio-3-cephem-4-carboxylic acid], for which the MIC in assay [1] is > 100 µg/mL; in assay [2], 0.2 µg/mL (≈ 0.399 µM); against Escherichia coli 255 it was 50 µg/mL (≈ 99.7 µM); in assay [3], 3.13 µg/mL (≈ 6.24 µM); against Proteus vulgaris GN76, 0.1 µg/mL (≈ 0.199 µM); in assay [4], 1.56 µg/mL (≈ 3.11 µM). The MIC is 0.78 µg/mL (≈ 1.56 µM) in assay [5]; > 100 µg/mL in assay [6]; 50 µg/mL (≈ 99.7 µM) in [7]; 0.2 µg/mL (≈ 0.399 µM) in [8]; 50 µg/mL (≈ 99.7 µM) in [9]; 0.39 µg/mL (≈ 0.778 µM) in assay [10]. Besides, the MIC is 0.39 µg/mL (≈ 0.778 µM) in assay [11]; 6.25 µg/mL (≈ 12.5 µM) in assay [12]; 6.25 µg/mL (≈ 12.5 µM) against Escherichia coli GN206; 0.39 µg/mL (≈ 0.778 µM) against Escherichia coli 255/S-1; > 100 µg/mL in [13]; 3.13 µg/mL (≈ 6.24 µM) in assay [14]. Further, the minimal inhibitory concentration (MIC) with Marganella morganii 1510 was 50 µg/mL (≈ 99.7 µM); in [15] it was 0.78 µg/mL (≈ 1.56 µM); in assay [16], > 100 µg/mL; in [17], 0.39 µg/mL (≈ 0.778 µM).

For `Nc1nc(/C(=N/O)C(=O)NC2C(=O)N3C(C(=O)O)=C(SCC4CCOCC4)CS[C@H]23)cs1` (stereo partly drawn) [Compound No. 37, 7-[(Z)-2-(2-aminothiazol-4-yl)-2-hydroxyiminoacetamido]-3-(tetrahydropyran-4-yl)methylthio-3-cephem-4-carboxylic acid], the MIC in assay [1] was determined as 50 µg/mL (≈ 100 µM); in assay [2], 0.1 µg/mL (≈ 0.2 µM); against Escherichia coli 255 it was 50 µg/mL (≈ 100 µM); in assay [3] it was 12.5 µg/mL (≈ 25 µM); against Proteus vulgaris GN76 it was 3.13 µg/mL (≈ 6.27 µM); in assay [4], 0.39 µg/mL (≈ 0.781 µM). In addition, the MIC is 0.39 µg/mL (≈ 0.781 µM) in [5]; > 100 µg/mL in [6]; > 100 µg/mL in assay [7]; 3.13 µg/mL (≈ 6.27 µM) in assay [8]; 100 µg/mL (≈ 200 µM) in assay [9]; 0.78 µg/mL (≈ 1.56 µM) in assay [10]. For the same compound, the minimal inhibitory concentration (MIC) is 3.13 µg/mL (≈ 6.27 µM) in assay [11]; 50 µg/mL (≈ 100 µM) in assay [12]; 12.5 µg/mL (≈ 25 µM) in the assay with Escherichia coli GN206; 3.13 µg/mL (≈ 6.27 µM) in the assay on Escherichia coli 255/S-1; > 100 µg/mL in assay [13]; 6.25 µg/mL (≈ 12.5 µM) in assay [14]. Further, the minimum inhibitory concentration (MIC) came to 100 µg/mL (≈ 200 µM) in the assay with Marganella morganii 1510, 6.25 µg/mL (≈ 12.5 µM) in assay [15], 25 µg/mL (≈ 50 µM) in assay [16] and 3.13 µg/mL (≈ 6.27 µM) in assay [17].

Regarding `CO/N=C(\C(=O)NC1C(=O)N2C(C(=O)O)=C(SCC3COCOC3)CS[C@H]12)c1csc(N)n1` (stereo partly drawn) [Compound No. 33, 7-[(Z)-2-(2-aminothiazol-4-yl)-2-methoxyiminoacetamido]-3-(1,3-dioxan-5-yl)methylthio-3-cephem-4-carboxylic acid], the minimum inhibitory concentration (MIC) in assay [1] was > 100 µg/mL; in assay [2], 0.1 µg/mL (≈ 0.194 µM); with Escherichia coli 255, 50 µg/mL (≈ 97 µM); in assay [3] it was 0.78 µg/mL (≈ 1.51 µM); with Proteus vulgaris GN76 it was 0.2 µg/mL (≈ 0.388 µM); in [4] it was 0.78 µg/mL (≈ 1.51 µM). For the same compound, the MIC was 0.78 µg/mL (≈ 1.51 µM) in assay [5]; > 100 µg/mL in [6]; 50 µg/mL (≈ 97 µM) in assay [7]; 0.39 µg/mL (≈ 0.756 µM) in assay [8]; 50 µg/mL (≈ 97 µM) in assay [9]; 0.39 µg/mL (≈ 0.756 µM) in assay [10]. In addition, the MIC was 0.78 µg/mL (≈ 1.51 µM) in [11]; 6.25 µg/mL (≈ 12.1 µM) in assay [12]; 6.25 µg/mL (≈ 12.1 µM) in the assay with Escherichia coli GN206; 0.78 µg/mL (≈ 1.51 µM) against Escherichia coli 255/S-1; > 100 µg/mL in assay [13]; 3.13 µg/mL (≈ 6.07 µM) in assay [14]. In addition, the MIC was 100 µg/mL (≈ 194 µM) against Marganella morganii 1510, 0.78 µg/mL (≈ 1.51 µM) in [15], > 100 µg/mL in [16] and 0.78 µg/mL (≈ 1.51 µM) in assay [17].

Regarding `CO/N=C(\C(=O)NC1C(=O)N2C(C(=O)O)=C(SC3CCOCC3)CS[C@H]12)c1csc(N)n1` (stereo partly drawn) [Compound No. 7, 7-[(Z)-2-(2-aminothiazol-4-yl)-2-methoxyiminoacetamido]-3-(tetrahydropyran-4-yl)thio-3-cephem-4-carboxylic acid], the minimum inhibitory concentration (MIC) came to 6.25 µg/mL (≈ 12.5 µM) in assay [1]; 0.78 µg/mL (≈ 1.56 µM) in assay [2]; 50 µg/mL (≈ 100 µM) in the assay with Escherichia coli 255; 0.78 µg/mL (≈ 1.56 µM) in assay [3]; 0.2 µg/mL (≈ 0.4 µM) against Proteus vulgaris GN76; 0.78 µg/mL (≈ 1.56 µM) in assay [4]. The minimal inhibitory concentration (MIC) in [5] was 0.39 µg/mL (≈ 0.781 µM); in assay [6], > 100 µg/mL; in assay [7] it was 100 µg/mL (≈ 200 µM); in assay [8], 0.39 µg/mL (≈ 0.781 µM); in assay [9], 50 µg/mL (≈ 100 µM); in [10], 0.2 µg/mL (≈ 0.4 µM). Moreover, the minimum inhibitory concentration (MIC) in [11] was 0.78 µg/mL (≈ 1.56 µM); in assay [12] it was 0.78 µg/mL (≈ 1.56 µM); against Escherichia coli GN206 it was 12.5 µg/mL (≈ 25 µM); against Escherichia coli 255/S-1 it was 0.78 µg/mL (≈ 1.56 µM); in [13], > 100 µg/mL; in [14], 6.25 µg/mL (≈ 12.5 µM). In addition, the minimum inhibitory concentration (MIC) with Marganella morganii 1510 was 50 µg/mL (≈ 100 µM); in [15], 1.56 µg/mL (≈ 3.12 µM); in [16] it was > 100 µg/mL; in assay [17], 0.78 µg/mL (≈ 1.56 µM).

For the compound `Nc1nc(/C(=N/O)C(=O)NC2C(=O)N3C(C(=O)O)=C(SC4CCOC4)CS[C@H]23)cs1` (stereo partly drawn) [Compound No. 13, 7-[(Z)-2-(2-aminothiazol-4-yl)-2-hydroxyiminoacetamido]-3-(tetrahydrofuran-3-yl)thio-3-cephem-4-carboxylic acid], the MIC came to 3.13 µg/mL (≈ 6.64 µM) in assay [1]; 0.39 µg/mL (≈ 0.827 µM) in [2]; 50 µg/mL (≈ 106 µM) in the assay on Escherichia coli 255; 3.13 µg/mL (≈ 6.64 µM) in assay [3]; 1.56 µg/mL (≈ 3.31 µM) against Proteus vulgaris GN76; 0.2 µg/mL (≈ 0.424 µM) in assay [4]. The minimum inhibitory concentration (MIC) in [5] was 0.2 µg/mL (≈ 0.424 µM); in assay [6], > 100 µg/mL; in [7], > 100 µg/mL; in [8] it was 0.2 µg/mL (≈ 0.424 µM); in assay [9], 100 µg/mL (≈ 212 µM); in [10], 0.2 µg/mL (≈ 0.424 µM). Further, the minimum inhibitory concentration (MIC) was 0.39 µg/mL (≈ 0.827 µM) in [11]; 6.25 µg/mL (≈ 13.3 µM) in assay [12]; 12.5 µg/mL (≈ 26.5 µM) in the assay on Escherichia coli GN206; 0.39 µg/mL (≈ 0.827 µM) in the assay with Escherichia coli 255/S-1; > 100 µg/mL in [13]; 3.13 µg/mL (≈ 6.64 µM) in assay [14]. Further, the MIC against Marganella morganii 1510 was 12.5 µg/mL (≈ 26.5 µM); in [15], 1.56 µg/mL (≈ 3.31 µM); in [16], 12.5 µg/mL (≈ 26.5 µM); in [17] it was 6.25 µg/mL (≈ 13.3 µM).
